Molecular target: T1, full-length human Mineralocorticoid Receptor (MR) (Homo sapiens, UniProt P08235)
T1 construct: host or cells: PathHunter CHO-K1 cells
T1 sequence (P08235 1-984): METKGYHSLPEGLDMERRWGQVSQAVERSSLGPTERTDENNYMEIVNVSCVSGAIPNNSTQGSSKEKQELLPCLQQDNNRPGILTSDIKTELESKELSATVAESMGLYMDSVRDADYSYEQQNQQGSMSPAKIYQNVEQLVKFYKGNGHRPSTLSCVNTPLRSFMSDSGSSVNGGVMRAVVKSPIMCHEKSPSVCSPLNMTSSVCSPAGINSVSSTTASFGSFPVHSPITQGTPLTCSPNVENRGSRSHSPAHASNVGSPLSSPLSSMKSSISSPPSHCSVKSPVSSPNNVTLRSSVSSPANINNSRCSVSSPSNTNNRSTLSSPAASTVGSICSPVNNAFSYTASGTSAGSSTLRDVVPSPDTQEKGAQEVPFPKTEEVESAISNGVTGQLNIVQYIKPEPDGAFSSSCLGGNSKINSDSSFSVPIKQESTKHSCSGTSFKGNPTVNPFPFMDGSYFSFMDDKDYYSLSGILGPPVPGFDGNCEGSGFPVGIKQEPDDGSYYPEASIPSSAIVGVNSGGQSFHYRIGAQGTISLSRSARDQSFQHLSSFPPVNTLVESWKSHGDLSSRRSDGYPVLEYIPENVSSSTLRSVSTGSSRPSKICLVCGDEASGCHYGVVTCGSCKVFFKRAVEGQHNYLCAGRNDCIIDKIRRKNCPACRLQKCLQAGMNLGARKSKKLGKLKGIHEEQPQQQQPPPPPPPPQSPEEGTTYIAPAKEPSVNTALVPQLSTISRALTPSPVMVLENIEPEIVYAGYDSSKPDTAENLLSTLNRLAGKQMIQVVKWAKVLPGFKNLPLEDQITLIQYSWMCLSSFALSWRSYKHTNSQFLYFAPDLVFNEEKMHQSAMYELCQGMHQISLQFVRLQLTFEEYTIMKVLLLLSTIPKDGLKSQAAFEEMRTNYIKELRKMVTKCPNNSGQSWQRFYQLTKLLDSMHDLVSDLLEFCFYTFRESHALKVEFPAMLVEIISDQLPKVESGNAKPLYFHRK
Assay: human MR NH Pro assay (PathHunter Protein:Protein interaction assay, MR antagonism)
Format: cell-based
Details: PathHunter CHO-K1 cells overexpressing human MR; aldosterone 0.3 nM; 6 hours at 37° C.; luminescence; read-out: IC50 rating
Protocol: The activity of the compounds of the present invention regarding mineralocorticoid receptor antagonism was evaluated using the following assay.
Assessment of Mr Potency in Hmr Nh Pro Assay
The human MR NH Pro assay is a commercially available PathHunter™ Protein: Protein interaction assay (DiscoveRx; http://www.discoverx.com/nhrs/prod-nhrs.php) that measures the ability of compounds to antagonize full-length human Mineralocorticoid Receptor (MR) binding to a coactivator peptide. PathHunter™ CHO-K1 cells that overexpress human MR (Cat #93-0456C2, Lot No: 09B0913) were cultured in growth media (F12K w/Glutamine and phenol red (Gibco 11765-047) supplemented with 10% HI FBS (Gibco 16000); 0.25 mg/ml Hygromycin in PBS (Invitrogen 10687-010, 50 mg/ml); 100 I.U./mL and 100 μg/mL Pen/Strep (Gibco 15140-122); 0.6 mg/mL Geneticin).
Compounds were assessed for MR antagonist activity by incubating the cells with a titrating dose of compound in F12K w/Glutamine and phenol red culture media (Invitrogen 11765-047) supplemented with 1% Charcoal/Dextran Treated FBS (Hyclone #SH30068.01) and aldosterone (0.3 nM) for 6 hours at 37° C.
• F12K w/Glutamine and phenol red (Gibco 11765-047) • 10% HI FBS (Gibco 16000) • 0.25 mg/ml Hygromycin in PBS (Invitrogen 10687-010, 50 mg/ml) • 100 I.U./mL and 100 μg/mL Pen/Strep (Gibco 15140-122) • 0.6 mg/mL Geneticin (Gibco 10131, 50 mg/ml) 2. Assay media: • F12K w/Glutamine and phenol red (Invitrogen 11765-047) • 1% Charcoal/Dextran Treated FBS (Hyclone #SH30068.01) 3. 3× PathHunter Detection Reagents (Cat#93-0001) (need ˜6 ml/plate). […] Control Agonist: Aldosterone: Sigma cat #A9477 • Prepare stock solution—10 μM in DMSO kept at −20 C • for assay, dilute in assay media to 1.8 or 6 nM (6× of final concentration=about 0.3 nM to about 1.0 nM) 5. Cell line: PathHunter CHO-K1 MR cells Cat #93-0456C2, Lot No: 09B0913, from operation liquid nitrogen stock. 6. Control Antagonist: Spironolactone: Sigma #S-3378 and Eplerenone Sigma #107724-20-9 (10 mM stock concentration also prepared in DMSO and stored at −20° C.). Methods: Assay Set up and Calculations: • 1. Cells were grown in F12+FBS+Hygromycin+pen/strep+Genetin. • 2. Cells were collected with 0.05% trypsin and the cell suspension was spun and resuspended in a volume of F12+1.5% CD-FBS and counted. • 3. The cells were resuspended to 4×10^5 cells/mL. • 4. Cells were (25 μL/well) added to the wells of a 384 well plate. • 5. The plate was then incubated at 37° C. over night in a humidified incubator with 5% CO2. • 6. Test compounds were titrated starting at 4.4 mM, 10-point titration in 1:3 dilution. • 7. Aldosterone was diluted in assay media to 1.8 nM or 6 nM from 10 μM stock (final concentration to be about 0.3 nM to about 1.0 nM). Protocol for 384 well plate format: 6 hr treatment: • 1. Plated 10K exponentially growing cells/well (25 μL) resuspended in assay media to each well using the Multidrop (Thermo Electron). Use white wall, clear bottom assay plates (Costar #3570) and incubate overnight at 37° C., 5% CO2. • 2. 0.25 μL 120× test compound (final DMSO concentration should be <1%) was added to each well n=2, 10 point titrations starting at 36.7 μM final concentration. • 3. 5 μL 6× agonist (final aldosterone concentration should be about 0.3 nM to about 1.0 nM) was added to all wells using the PlateMate Plus.
(ThermoFisher) (except those wells in columns 23 and 24) • 4. 5 μL of assay media was added to all wells in column 23 and 24. • 5. Plates were incubated 6 hrs at 37° C., 5% CO2. • 6. 15 μL 3× DiscoveRx detection reagent was added to each well. • 7. Plates were incubated for 1 hour at room temperature (plates stored in the dark). • 8. Plates were read on Envision (PerkinElmer) luminesence plate reader and analyzed using ADA. LC/MS method: (LC2M_Low/Med_Positive mode). LC Conditions: 5-98% CH3CN/H2O+v 0.1% TFA over 1.25 min; Flow Rate=1.5 mL/min, UV wavelength 254 nm; Column: Waters XTerra® MS C18 3.5 μm 2.1×20 mm IS™

IC50, 100 to 500 nM:
C[C@H](c1ccc(F)cc1)N1C(=O)O[C@](Cc2ccccc2)(C(=O)Nc2ccc(Cl)cc2)C1=O [Compound 14, (5R)-5-Benzyl-N-(4-chlorophenyl)-3-[(1R)-1-(4-fluorophenyl)ethyl]-2,4-dioxo-1,3-oxazolidine-5-carboxamide]
C[C@H](c1ccc(F)cc1)N1C(=O)O[C@](Cc2ccccc2)(C(=O)Nc2ccc(F)cc2)C1=O [Compound 15, (5R)-5-Benzyl-N-(4-fluorophenyl)-3-[(1R)-1-(4-fluorophenyl)ethyl]-2,4-dioxo-1,3-oxazolidine-5-carboxamide]
C[C@H](C1CCCCC1)N1C(=O)O[C@](Cc2ccc(F)cc2)(C(=O)Nc2ccc(Cl)cc2)C1=O [Compound 16, (5R)-N-(4-Chlorophenyl)-3-[(1R)-1-cyclohexylethyl]-5-(4-fluorobenzyl)-2,4-dioxo-1,3-oxazolidine-5-carboxamide]
C[C@H](C1CCCCC1)N1C(=O)O[C@](Cc2ccccc2)(C(=O)NCc2ccc(Cl)c(Cl)c2)C1=O [Compound 17, (5R)-5-Benzyl-3-[(1R)-1-cyclohexylethyl]-N-(3,4-dichlorobenzyl)-2,4-dioxo-1,3-oxazolidine-5-carboxamide]
C[C@H](c1ccc(F)cc1)N1C(=O)O[C@](Cc2ccccc2)(C(=O)NC(c2cccc(Cl)c2)C(F)(F)F)C1=O (stereo partly drawn) [Compound 18, (5R)-5-Benzyl-N-[1-(3-chlorophenyl)-2,2,2-trifluoroethyl]-3-[(1R)-1-(4-fluorophenyl)ethyl]-2,4-dioxo-1,3-oxazolidine-5-carboxamide]
C[C@H](c1ccc(F)cc1)N1C(=O)O[C@](Cc2ccccc2)(C(=O)Nc2ccccc2)C1=O [Compound 19, (5R)-5-Benzyl-3-[(1R)-1-(4-fluorophenyl)ethyl]-2,4-dioxo-N-phenyl-1,3-oxazolidine-5-carboxamide]
C[C@H](c1ccc(F)cc1)N1C(=O)O[C@](Cc2ccccc2)(C(=O)Nc2cccnc2)C1=O [Compound 20]
C[C@H](c1ccccc1)N1C(=O)O[C@](Cc2ccccc2)(C(=O)N2CCc3ccccc3C2)C1=O [Compound 21, (5R)-Benzyl-5-(3,4-dihydroisoquinolin-2(1H)-ylcarbonyl)-3-[(1R)-1-phenylethyl]-1,3-oxazolidine-2,4-dione]
C[C@H](c1ccccc1)N1C(=O)O[C@](Cc2ccccc2)(C(=O)N2Cc3ccccc3C2)C1=O [Compound 22, (5R)-Benzyl-5-(1,3-dihydro-2H-isoindol-2-ylcarbonyl)-3-[(1R)-1-phenylethyl]-1,3-oxazolidine-2,4-dione]

Source: US9505730B2, “Mineralocorticoid receptor antagonists” (Merck Sharp & Dohme Corp., priority 2011, dated 2016)
